Source text: (§1) Solubility may be determined by measuring the amount of light transmittance (a light transmittance value) through a simple mixture of the non-volatile silicone fluid and liquid activation enhancer at the same weight/weight concentrations as in a final antiperspirant composition.
as §1, with “Solubility of a liquid activation enhancer in a non-volatile silicone” for “Solubility”, “(light” for “(a light”
The Spectronic Genesys 10 Vis utilizes a tungsten-halogen light source and has a spectral bandwidth of 5 nm, a wavelength range of 325 to 1100 nm, accuracy of ±1 nm and a repeatability of ±0.5 nm. Readouts include absorbance, transmittance and concentration. The spectrophotometer is set to 640 nm wavelength and the percent transmittance mode/readout. Polystyrene spectrometer cuvettes having a 1 cm optical light path and transmittance between ˜340 nm and ˜900 nm are used. One suitable example of a spectrometer cuvette is available from VWR International LLC under Catalog #97000-584 having a 2.5 to 4.5 ml capacity. The spectrophotometer is calibrated according to the manufacturer's instructions using a reference cuvette and composition comprised of just the non-volatile silicone fluid of interest. For example, if the test composition comprises 50 centistoke dimethicone and 15% w/w of isopropyl myristate, then the spectrometer is calibrated using a cuvette containing just 50 centistoke dimethicone. Sample cuvettes are filled sufficiently with a test composition of a non-volatile silicone fluid and liquid activation enhancer so that the light path of the spectrophotometer passes through the test composition in the cuvette. The sample cuvettes are shaken well just prior to taking a light transmittance reading.

| light transmittance value | Compound | solubility in 50 centistoke dimethicone |
| --- | --- | --- |
|  | PPG-14 butyl ether | insoluble in 50 centistoke dimethicone across the 2% to 30% w/w concentration range |
| about 100% | CCCCCCCCCCCCCCCCCC(=O)OCCCC [butyl stearate] |  |
| about 100% | CCCCCCCCCCCCCC(C)C [isohexadecane] | soluble in 50 centistoke dimethicone across the 2% to 30% w/w concentration range |
| about 100% | mineral oil |  |
